Data from patent US20230165831A1, “METHOD AND COMPOSITION FOR RENDERING CANCER CELLS SUSCEPTIBLE TO TREATMENT BY TARGETED ONCOGENETIC DRIVERS” (IMPACT BIOLIFE SCIENCE, INC., priority 2021, published 2023).
Where two headings read alike, the source gives them in different places.

What was measured:
[1] = tested on: Liver cancer line SK-HEP-1 cells;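 further: luminescent signal read after 72 h compound exposure at 37 °C under 5% CO2, with medium-only wells serving as blank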
[2] = tested on: pancreatic cancer line Capan-1 cells; experiment: CTG (CellTiter-Glo) cell viability assay, 6×6 combo matrix, 72 h, Capan-1; assay type: cell-based; details: Homo sapiens, CAPAN-1; read-out: Relatively Cell inhibition of vehicle control
Protocol: To measure the cell inhibition effect of compounds and synergy effect of test articles on ten (10) cell lines using standard CTG assay.
b. A549, T47D, SK-OV-3, MKN45, SK-Hep-1, HT-29, Capan-1, 786-O and LNCaP cell line, for compounds and vehicle groups, the seeding density of cell lines is 3000 cells/80 µL per well. For blank groups, add 100 µL medium. For PBS groups, add 100 µL PBS.
8) Incubate the U87MG, A549, T47D, SK-OV-3, MKN45, SK-Hep-1, HT-29, Capan-1, 786-O and LNCaP cells overnight at 37° C./5% CO2.
5) Incubate the plates at 37° C./5% CO2 for 72 hours.
6) Read plates in Envision.

[3] = tested on: kidney cancer line 786-O cells;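 further: luminescence read-out after adding CellTiter-Glo reagent, with cells incubated at 37 °C under 5% CO2 during compound exposure, part of a ten cell line synergy study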
[4] = tested on: lung adenocarcinoma line A549 cells; experiment: CTG (CellTiter-Glo) cell viability assay, 6×6 combo matrix, 72 h, A549; details: Homo sapiens, A549, read-out: Relatively Cell inhibition of vehicle control(%);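 further: luminescent ATP readout with CellTiter-Glo after compound exposure, used to assess growth inhibition and combination synergy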
[5] = tested on: Liver cancer line SK-HEP-1 cells; experiment: CTG (CellTiter-Glo) cell viability assay, 6×6 combo matrix, 72 h, SK-Hep-1; details: Homo sapiens;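 further: luminescent signal read after 72 h compound exposure at 37 °C under 5% CO2, with medium-only wells serving as blank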
[6] = tested on: breast cancer line T47D cells; experiment: CTG (CellTiter-Glo) cell viability assay, 6×6 combo matrix, 72 h, T47D; details: Homo sapiens;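 further: luminescence read-out after 72 h at 37 °C under 5% CO2, with medium-only wells as blanks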
Protocol: (§1) 7) Using complete cell medium, adjust the volume of the suspension to achieve a cell concentration.
(§2) Solid compound of cis-platinum was solubilized in PBS to a stock solution of 3.333 mM.
(§3) Final volume is 100 µL per well at this point.
(§4) 1) Incubate the plates at room temperature and away from light for 30 minutes.
(§5) 3) Add 100 µL /well of CellTiter-Glo® Reagent in each well. Avoid light.
(§6) 4) Mix contents for 2 minutes on an orbital shaker.
(§7) 5) Incubate plate at room temperature for 10 minutes to stabilize the luminescent signal.

[7] = tested on: breast cancer line T47D cells;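 further: luminescence read-out after 72 h at 37 °C under 5% CO2, with medium-only wells as blanks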
Protocol: as §1, §2, §3, §4, §5, §6, §7

[8] = tested on: kidney cancer line 786-O cells; experiment: CTG (CellTiter-Glo) cell viability assay, 6×6 combo matrix, 72 h, 786-O; details: Homo sapiens, 786-0, read-out: Relatively Cell inhibition of vehicle control;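 further: luminescence read-out after adding CellTiter-Glo reagent, with cells incubated at 37 °C under 5% CO2 during compound exposure, part of a ten cell line synergy study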
[9] = tested on: prostate adenocarcinoma line LNCap cells; experiment: CTG (CellTiter-Glo) cell viability assay, 6×6 combo matrix, 72 h, LNCaP; details: Homo sapiens, LNCaP;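 further: luminescence signal read after adding CellTiter-Glo reagent, with cells exposed to compounds for 72 h at 37 °C under 5% CO2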
Protocol: as §1, §2, §3, §4, §5, §6, §7

[10] = tested on: glioblastoma line U87MG cells; experiment: CTG (CellTiter-Glo) cell viability assay, 6×6 combo matrix, 72 h, U87MG; details: Homo sapiens, U-87 MG;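 further: U87MG cells seeded at 2000 per well, exposed 72 h, viability read by CellTiter-Glo luminescence, inhibition expressed relative to vehicle-treated wells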
Protocol: as §1
U87MG cell lines, for compounds and vehicle groups, the seeding density of cell lines is 2000 cells/80 µL per well. For blank groups, add 100 µL medium. For PBS groups, add 100 µL PBS.
as §2, §3, §4, §5, §6, §7

[11] = tested on: colorectal cancer line HT29 cells; experiment: CTG (CellTiter-Glo) cell viability assay, 6×6 combo matrix, 72 h, HT29; details: Homo sapiens, HT-29, read-out: Relatively Cell inhibition of vehicle control(%);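 further: cells exposed to compounds for 72 hours at 37 °C under 5% CO2, then viability read as luminescence after adding CellTiter-Glo Reagent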
Protocol: as §1, §2, §3, §4, §5, §6, §7

SMILES: COc1cccc2c1C(=O)c1c(O)c3c(c(O)c1C2=O)C[C@@](O)(C(=O)CO)C[C@@H]3O[C@H]1C[C@H](N)[C@H](O)[C@H](C)O1 [doxorubicin]
- inhibition [1]: 4.48%
- inhibition at 0.08 µM [2]: 44.8%
- inhibition at 0.4 µM [2]: 68%
- inhibition at 2 µM [2]: 86.9%
- inhibition at 10 µM [2]: 74.9%
- inhibition [3]: 3.98%
- inhibition at 0.08 µM [4]: 42.2%
- inhibition at 0.4 µM [4]: 61.4%
- inhibition at 2 µM [4]: 95.8%
- inhibition at 10 µM [4]: 94.3%
- inhibition at […] ([5]; SK-HEP1, read-out: Relatively Cell inhibition of vehicle control, doxorubicin 16 nM only (myricetin table)): 6.89%
- inhibition at 0.08 µM ([5]; SK-HEP1, read-out: Relatively Cell inhibition of vehicle control, doxorubicin 80 nM only (LB-1 table)): 31.3%
- inhibition at 0.08 µM ([5]; SK-HEP1, read-out: Relatively Cell inhibition of vehicle control, doxorubicin 80 nM only (myricetin table)): 25.5%
- inhibition at 0.4 µM ([5]; SK-HEP1, read-out: Relatively Cell inhibition of vehicle control, doxorubicin 400 nM only (LB-1 table)): 66.2%
- inhibition at 0.4 µM ([5]; SK-HEP1, read-out: Relatively Cell inhibition of vehicle control, doxorubicin 400 nM only (myricetin table)): 68.5%
- inhibition at 2 µM ([5]; SK-HEP1, read-out: Relatively Cell inhibition of vehicle control, doxorubicin 2000 nM only (LB-1 table)): 98.6%
- inhibition at 2 µM ([5]; SK-HEP1, read-out: Relatively Cell inhibition of vehicle control, doxorubicin 2000 nM only (myricetin table)): 98.5%
- inhibition at 10 µM ([5]; SK-HEP1, read-out: Relatively Cell inhibition of vehicle control, doxorubicin 10000 nM only (LB-1 table)): 99.4%
- inhibition at 10 µM ([5]; SK-HEP1, read-out: Relatively Cell inhibition of vehicle control, doxorubicin 10000 nM only (myricetin table)): 99.4%
- inhibition at […] ([6]; read-out: Relatively Cell inhibition of vehicle control(%), T47D, 16 nM doxorubicin only (myricetin 0)): 6.02%
- inhibition at 0.08 µM ([6]; read-out: Relatively Cell inhibition of vehicle control(%), T47D, 80 nM doxorubicin only (LB-1 0)): 19.3%
- inhibition at 0.08 µM ([6]; read-out: Relatively Cell inhibition of vehicle control(%), T47D, 80 nM doxorubicin only (myricetin 0)): 23%
- inhibition at 0.4 µM ([6]; read-out: Relatively Cell inhibition of vehicle control(%), T47D, 400 nM doxorubicin only (LB-1 0)): 50.2%
- inhibition at 0.4 µM ([6]; read-out: Relatively Cell inhibition of vehicle control(%), T47D, 400 nM doxorubicin only (myricetin 0)): 53.7%
- inhibition at 2 µM ([6]; read-out: Relatively Cell inhibition of vehicle control(%), T47D, 2000 nM doxorubicin only (LB-1 0)): 51.6%
- inhibition at 2 µM ([6]; read-out: Relatively Cell inhibition of vehicle control(%), T47D, 2000 nM doxorubicin only (myricetin 0)): 59%
- inhibition at 10 µM ([6]; read-out: Relatively Cell inhibition of vehicle control(%), T47D, 10000 nM doxorubicin only (LB-1 0)): 45.3%
- inhibition at 10 µM ([6]; read-out: Relatively Cell inhibition of vehicle control(%), T47D, 10000 nM doxorubicin only (myricetin 0)): 48.1%
- inhibition [7]: 0.17%
- inhibition at 0.08 µM [8]: 24%
- inhibition at 0.4 µM [8]: 64.9%
- inhibition at 2 µM [8]: 76.2%
- inhibition at 10 µM [8]: 83.8%
- inhibition at […] ([9]; read-out: Relatively Cell inhibition of vehicle control(%), doxorubicin 16 nM only (myricetin plate)): 2.69%
- inhibition at 0.08 µM ([9]; read-out: Relatively Cell inhibition of vehicle control(%), doxorubicin 80 nM only (LB-1 plate)): 29.9%
- inhibition at 0.08 µM ([9]; read-out: Relatively Cell inhibition of vehicle control(%), doxorubicin 80 nM only (myricetin plate)): 31.7%
- inhibition at 0.4 µM ([9]; read-out: Relatively Cell inhibition of vehicle control(%), doxorubicin 400 nM only (LB-1 plate)): 65.2%
- inhibition at 0.4 µM ([9]; read-out: Relatively Cell inhibition of vehicle control(%), doxorubicin 400 nM only (myricetin plate)): 67.3%
- inhibition at 2 µM ([9]; read-out: Relatively Cell inhibition of vehicle control(%), doxorubicin 2000 nM only (LB-1 plate)): 97.2%
- inhibition at 2 µM ([9]; read-out: Relatively Cell inhibition of vehicle control(%), doxorubicin 2000 nM only (myricetin plate)): 97%
- inhibition at 10 µM ([9]; read-out: Relatively Cell inhibition of vehicle control(%), doxorubicin 10000 nM only (LB-1 plate)): 87.8%
- inhibition at 10 µM ([9]; read-out: Relatively Cell inhibition of vehicle control(%), doxorubicin 10000 nM only (myricetin plate)): 88.9%
- inhibition at 0.08 µM ([10]; 72 h, read-out: Relatively Cell inhibition of vehicle control(%), U87MG, 80 nM doxorubicin only (LB-1 0), 72 h): 50%
- inhibition at 0.4 µM ([10]; 72 h, read-out: Relatively Cell inhibition of vehicle control(%), U87MG, 400 nM doxorubicin only (LB-1 0), 72 h): 91.3%
- inhibition at 2 µM ([10]; 72 h, read-out: Relatively Cell inhibition of vehicle control(%), U87MG, 2000 nM doxorubicin only (LB-1 0), 72 h): 72.4%
- inhibition at 10 µM ([10]; 72 h, read-out: Relatively Cell inhibition of vehicle control(%), U87MG, 10000 nM doxorubicin only (LB-1 0), 72 h): 78.4%
- inhibition at […] ([10]; read-out: Relatively Cell inhibition of vehicle control(%), doxorubicin 16 nM only): 27.4%
- inhibition at 0.08 µM ([10]; read-out: Relatively Cell inhibition of vehicle control(%), doxorubicin 80 nM only): 52.5%
- inhibition at 0.4 µM ([10]; read-out: Relatively Cell inhibition of vehicle control(%), doxorubicin 400 nM only): 93%
- inhibition at 2 µM ([10]; read-out: Relatively Cell inhibition of vehicle control(%), doxorubicin 2000 nM only): 78.3%
- inhibition at 10 µM ([10]; read-out: Relatively Cell inhibition of vehicle control(%), doxorubicin 10000 nM only): 80.8%
- inhibition at 0.08 µM [11]: 25.6%
- inhibition at 0.4 µM [11]: 61.1%
- inhibition at 2 µM [11]: 92.3%
- inhibition at 10 µM [11]: 79.1%
